From publication PMC6763016 (PLoS ONE, 2019)

Target: T1, 5-HT1A autoreceptor (5-HT1AAR) of Tph2-/- mouse dorsal raphe serotonergic neurons (Mus musculus, UniProt Q64264)
T1 construct: gene Htr1a
T1 sequence (Q64264 1-421): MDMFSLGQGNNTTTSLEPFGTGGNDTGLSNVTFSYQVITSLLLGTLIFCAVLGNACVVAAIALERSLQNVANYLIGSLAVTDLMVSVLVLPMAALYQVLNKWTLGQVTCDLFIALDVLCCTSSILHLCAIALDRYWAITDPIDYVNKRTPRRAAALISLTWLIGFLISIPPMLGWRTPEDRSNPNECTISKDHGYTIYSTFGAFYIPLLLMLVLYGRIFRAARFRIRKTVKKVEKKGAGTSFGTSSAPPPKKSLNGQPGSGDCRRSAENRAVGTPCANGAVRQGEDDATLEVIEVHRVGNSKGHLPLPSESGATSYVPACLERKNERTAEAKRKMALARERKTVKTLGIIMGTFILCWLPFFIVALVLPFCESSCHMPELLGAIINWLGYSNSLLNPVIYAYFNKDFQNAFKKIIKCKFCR
Settings: agonist; 10 μM phenylephrine and synaptic blockers present; 34-36 °C; four of nine neurons (those silenced by 1 μM)

O=c1n(CCCN2CCN(c3cccc(Cl)c3)CC2)nc2ccccn12 [Trazodone]
% decrease of firing at 1 μM: 96.1 ± 7.3%
